Values of other authors, collected in article PMC9010257 (Clinical and Translational Science, 2022).

Tested on: TNAP

Row | SMILES | inhibitory activity | specificity for TNAP
1 | c1ccc([C@H]2CN3CCSC3=N2)cc1 [levamisole] | weak inhibitory activity | not specific for TNAP
2 | Cn1c(=O)c2[nH]cnc2n(C)c1=O [theophylline] | weak inhibitory activity | not specific for TNAP
